Test results: ChEMBL document CHEMBL1201862, “PubChem BioAssay data set” (2004)
The source made the active and inactive calls.

Tests used:
Aminopeptidase N = biological target: T1, Aminopeptidase N (Plasmodium falciparum FcB1/Columbia, UniProt O96935); assay: P. falciparum M1AAP inhibitors, biochemical, fluorogenic H-Leu-NHMec substrate, 1536-well (AID 1445); parameters: species or system Plasmodium falciparum 3D7, 3D7
T1 sequence (O96935 whole entry): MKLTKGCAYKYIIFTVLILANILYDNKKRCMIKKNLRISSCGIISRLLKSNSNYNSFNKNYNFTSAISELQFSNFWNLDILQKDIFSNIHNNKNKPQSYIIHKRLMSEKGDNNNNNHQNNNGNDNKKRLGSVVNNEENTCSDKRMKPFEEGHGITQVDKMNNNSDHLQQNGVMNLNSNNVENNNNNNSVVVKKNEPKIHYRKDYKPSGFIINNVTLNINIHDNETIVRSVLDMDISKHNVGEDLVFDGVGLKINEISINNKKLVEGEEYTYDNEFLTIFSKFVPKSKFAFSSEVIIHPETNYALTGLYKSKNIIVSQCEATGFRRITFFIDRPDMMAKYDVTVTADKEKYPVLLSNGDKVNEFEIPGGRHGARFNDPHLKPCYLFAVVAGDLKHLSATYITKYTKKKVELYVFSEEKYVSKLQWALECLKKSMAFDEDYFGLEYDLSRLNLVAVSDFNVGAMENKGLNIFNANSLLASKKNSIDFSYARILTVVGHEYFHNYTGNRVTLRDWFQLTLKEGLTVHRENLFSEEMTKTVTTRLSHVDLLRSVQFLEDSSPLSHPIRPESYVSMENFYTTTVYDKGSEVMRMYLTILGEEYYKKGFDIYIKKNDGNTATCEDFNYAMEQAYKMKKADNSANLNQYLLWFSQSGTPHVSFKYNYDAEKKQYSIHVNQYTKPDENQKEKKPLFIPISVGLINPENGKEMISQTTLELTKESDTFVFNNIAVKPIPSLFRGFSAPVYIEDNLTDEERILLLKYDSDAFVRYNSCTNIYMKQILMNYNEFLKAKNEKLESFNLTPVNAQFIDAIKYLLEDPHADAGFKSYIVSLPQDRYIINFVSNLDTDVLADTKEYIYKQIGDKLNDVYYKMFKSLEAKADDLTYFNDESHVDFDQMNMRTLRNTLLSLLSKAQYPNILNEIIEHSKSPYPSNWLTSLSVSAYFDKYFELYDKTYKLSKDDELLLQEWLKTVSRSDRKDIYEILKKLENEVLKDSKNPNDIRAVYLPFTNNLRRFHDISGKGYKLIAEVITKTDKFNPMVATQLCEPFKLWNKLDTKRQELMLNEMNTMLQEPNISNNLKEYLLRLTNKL

H4 = assay: Luminescence Cell-Based Dose Response HTS to Identify Activators of 5'UTR Stem-Loop Driven Prion Protein mRNA Translation in H4 Neuroglioblastoma Cells. [Related pubchem assays: 1829 (Project Summary), 1814 (Primary HTS)]; assay type: functional; settings: Homo sapiens
Vero = Vero cell cytotoxicity, cytotoxicity control for flavivirus capping enzyme inhibitors (AID 588742); assay type: functional; settings: Chlorocebus sabaeus
Genome polyprotein = Genome polyprotein (dengue virus type 2, UniProt P29990); assay: Dengue-2 NS5 methyltransferase inhibitors, primary screen, biochemical, confirmation dose response (AID 588689); assay type: functional
[1] = Luminescence Cell-Based Dose Confirmation HTS to Identify Activators of 5'UTR Stem-Loop Driven Alpha-Synuclein mRNA Translation in H4 Neuroglioblastoma Cells. [Related pubchem assays: 1829 (Project Summary), 1814 (Primary HTS)]; assay type: functional
[2] = Luminescence Cell-Based Dose Response HTS to Identify Activators of Luciferase Translation or Activity in H4 […] Cells. [Related pubchem assays: 1829 (Project Summary), 1814 (Primary HTS)]; assay type: functional
[3] = HIV-1 Env-mediated cell fusion inhibitors, dose response, CCR5-tropic Env (AID 2279); assay type: functional
[4] = inhibitors of intracellular T. cruzi replication, confirmation, NIH3T3 host cells, beta-gal luminescence (AID 2044); assay type: functional, cell-based;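 further: intracellular parasites grown in NIH/3T3 mouse fibroblasts as host cells; luminescent beta-galactosidase reporter signal from transgenic T. cruzi replicating inside host cells; inhibitors lower the luminescence signal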
[5] = cytotoxicity toward NIH3T3 fibroblasts, dose response, counter-screen, cell-based, ATP luminescence, mouse fibroblasts (AID 2010); assay type: functional;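 further: cells exposed to compound for about 90 hours before reading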
[6] = biological target: T2, Carboxy-terminal domain RNA polymerase II polypeptide A small phosphatase 1 (Homo sapiens, UniProt Q9GZU7); assay: inhibitors of CTDSP1, concentration-response testing, biochemical assay, absorbance-based, actives from ultra-high-throughput screening (AID 540297); assay type: functional
T2 sequence (Q9GZU7 whole entry): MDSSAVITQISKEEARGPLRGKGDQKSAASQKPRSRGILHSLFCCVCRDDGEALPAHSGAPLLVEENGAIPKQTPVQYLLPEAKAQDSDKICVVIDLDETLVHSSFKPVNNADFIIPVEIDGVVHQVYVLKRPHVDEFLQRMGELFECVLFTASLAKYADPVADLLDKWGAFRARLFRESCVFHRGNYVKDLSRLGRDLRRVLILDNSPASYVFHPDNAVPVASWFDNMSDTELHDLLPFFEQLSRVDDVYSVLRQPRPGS

[7] = HEp-2 cell cytotoxicity, dose response, cytotoxicity control for RSV inhibitor project, HTS (AID 2410); assay type: functional; settings: human respiratory syncytial virus
[8] = Luminescence Cell-Based Dose Response to Identify Activators of 5'UTR Stem-Loop Driven Prion Protein mRNA Translation in H4-C Neuroglioblastoma Cells. [Related pubchem assays: 1829 (Project Summary), 1814 (Primary HTS)]; assay type: functional
[9] = Luminescence Cell-Based Dose Response to Identify Activators of Luciferase Translation or Activity in H4-C Neuroglioblastoma Cells. [Related pubchem assays: 1829 (Project Summary), 1814 (Primary HTS)]; assay type: functional
[10] = Luminescence Cell-Based Dose Confirmation to Identify Activators of 5'UTR Stem-Loop Driven Alpha-Synuclein mRNA Translation in H4 Neuroglioblastoma Cells. [Related pubchem assays: 1829 (Project Summary), 1814 (Primary HTS)]; assay type: functional
[11] = biological target: T3, Heat shock factor protein 1 (Mus musculus, UniProt P38532); assay: inhibition of MG132-induced HSE-luciferase signal, confirmation, cell-based, NIH3T3, luminescence, dose retest (AID 2382); assay type: functional;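 further: NIH3T3 fibroblasts with HSF1-driven luciferase reporter stressed by proteasome inhibitor MG132; luminescence from HSF1-driven luciferase expression after 8 hours of MG132 stress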
T3 sequence (P38532 whole entry): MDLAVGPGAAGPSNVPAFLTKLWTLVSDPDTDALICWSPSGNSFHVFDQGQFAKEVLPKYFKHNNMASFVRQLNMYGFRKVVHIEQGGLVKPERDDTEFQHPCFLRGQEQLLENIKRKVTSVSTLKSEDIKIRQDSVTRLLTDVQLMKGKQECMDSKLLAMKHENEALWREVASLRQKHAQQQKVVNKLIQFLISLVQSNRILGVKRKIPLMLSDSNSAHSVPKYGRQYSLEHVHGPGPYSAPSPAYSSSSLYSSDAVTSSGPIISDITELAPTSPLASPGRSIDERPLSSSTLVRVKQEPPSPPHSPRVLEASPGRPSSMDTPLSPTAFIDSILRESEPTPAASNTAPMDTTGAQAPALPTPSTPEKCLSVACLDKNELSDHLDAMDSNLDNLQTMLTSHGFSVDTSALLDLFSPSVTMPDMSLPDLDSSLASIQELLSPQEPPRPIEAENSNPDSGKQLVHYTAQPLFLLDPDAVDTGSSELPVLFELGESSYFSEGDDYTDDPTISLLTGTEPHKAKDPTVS

[12] = biological target: T4, Aryl hydrocarbon receptor (Homo sapiens, UniProt P35869); assay: Luminescence-based cell-based high throughput dose response assay for activators of the Aryl Hydrocarbon Receptor (AHR). [Related pubchem assays: 2796 (Primary screen (AHR activators in singlicate)), 2845 (Confirmation screen (AHR activators in triplicate)), 434939 (Counterscreen (PXR activators in triplicate)), 2804 (Summary (AHR activators))]; assay type: ADME
T4 sequence (P35869 whole entry): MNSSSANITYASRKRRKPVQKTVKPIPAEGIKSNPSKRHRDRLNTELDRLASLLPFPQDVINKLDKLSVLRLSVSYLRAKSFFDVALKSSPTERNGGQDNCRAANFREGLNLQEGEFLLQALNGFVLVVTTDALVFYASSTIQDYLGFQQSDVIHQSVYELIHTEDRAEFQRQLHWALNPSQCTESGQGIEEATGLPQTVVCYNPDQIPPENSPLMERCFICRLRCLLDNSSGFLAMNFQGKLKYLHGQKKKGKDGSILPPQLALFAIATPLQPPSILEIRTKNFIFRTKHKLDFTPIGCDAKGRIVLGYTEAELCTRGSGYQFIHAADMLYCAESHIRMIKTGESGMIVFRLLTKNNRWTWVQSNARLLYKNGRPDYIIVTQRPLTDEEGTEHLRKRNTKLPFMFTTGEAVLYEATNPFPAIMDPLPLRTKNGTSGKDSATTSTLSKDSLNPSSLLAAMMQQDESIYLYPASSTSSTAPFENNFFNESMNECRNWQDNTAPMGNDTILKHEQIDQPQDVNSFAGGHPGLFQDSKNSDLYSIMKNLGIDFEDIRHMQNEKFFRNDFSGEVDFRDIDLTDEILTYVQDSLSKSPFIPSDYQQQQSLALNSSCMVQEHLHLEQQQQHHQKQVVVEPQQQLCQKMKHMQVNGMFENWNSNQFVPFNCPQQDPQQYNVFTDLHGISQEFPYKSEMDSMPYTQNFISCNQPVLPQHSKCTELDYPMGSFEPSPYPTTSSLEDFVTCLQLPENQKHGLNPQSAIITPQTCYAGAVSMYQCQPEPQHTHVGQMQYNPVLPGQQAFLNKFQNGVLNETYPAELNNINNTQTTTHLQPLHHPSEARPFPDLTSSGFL

Estrogen receptor = biological target: T5, Estrogen receptor (Homo sapiens, UniProt P03372);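 further: potency for inhibiting coactivator peptide recruitment to the receptor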
T5 sequence (P03372 whole entry): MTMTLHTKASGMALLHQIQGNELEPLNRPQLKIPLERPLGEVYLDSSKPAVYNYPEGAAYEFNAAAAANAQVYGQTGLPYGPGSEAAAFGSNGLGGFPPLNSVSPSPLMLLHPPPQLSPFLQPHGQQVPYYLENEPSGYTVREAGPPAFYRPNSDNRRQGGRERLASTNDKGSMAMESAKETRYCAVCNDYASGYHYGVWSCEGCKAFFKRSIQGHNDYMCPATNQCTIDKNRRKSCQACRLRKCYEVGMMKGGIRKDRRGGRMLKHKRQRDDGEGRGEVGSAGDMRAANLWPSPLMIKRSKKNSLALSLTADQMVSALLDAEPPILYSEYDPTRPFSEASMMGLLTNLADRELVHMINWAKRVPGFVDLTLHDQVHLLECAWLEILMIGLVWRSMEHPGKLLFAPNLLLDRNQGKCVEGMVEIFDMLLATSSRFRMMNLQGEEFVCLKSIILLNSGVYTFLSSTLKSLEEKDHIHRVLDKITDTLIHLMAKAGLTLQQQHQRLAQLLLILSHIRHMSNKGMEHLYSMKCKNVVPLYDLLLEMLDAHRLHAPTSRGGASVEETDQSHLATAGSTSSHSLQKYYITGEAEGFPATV

INS1 = assay: beta cell apoptosis inhibitors, cytokine rescue, dose response, luminescence, retest (AID 449756); assay type: functional, cell-based; settings: Rattus norvegicus;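 further: cell death triggered by IL-1 beta plus TNF-alpha plus IFN-gamma mixture; protective hits raise ATP signal compared with cytokine alone wells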
[13] = A Cell Based Secondary Assay To Explore Cytotoxicity of Compounds that Sensitize Mycobacterium Tuberculosis to Beta-Lactam Antibiotics.; assay type: functional
[14] = tested on: Streptococcus sp. 'group A'; assay: growth inhibition of control SK(-) GAS strain, dose response, counter-screen for streptokinase expression inhibitor project, luminescence, kanamycin, BacTiterGlo, confirmation (AID 1900); assay type: functional, organism-based
[15] = growth suppression of beta-catenin-knockout colon cells, dose response, cell-based, HCT116, human colon tumor (AID 1045); assay type: functional;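 further: HCT116 colon tumor cells with beta catenin knocked out; cells exposed to compound for 60 hours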
Streptococcus = assay: Group A Streptococcus viability loss, dose response, counter-screen for streptokinase expression inhibitor project, luminescence, BacTiterGlo (AID 1915); assay type: functional, organism-based;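 further: potency for reduction of bacterial viability or growth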
[16] = growth suppression of PTEN-null colon cells, dose response, cell-based, HCT116 PTEN knockout (AID 1047); assay type: functional;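 further: HCT116 colon tumor cells with PTEN knocked out; cells exposed to compound for 60 hours before readout; potency for loss of cell viability measured by luminescence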
[17] = Luminescence-based dose response cell-based high throughput screening assay for cytotoxic compounds using the IEC-6 intestinal epithelial cell line. [Related pubchem assays: 1858 (Summary AID.), 1825 (Counterscreen.), 1907 (Confirmation screen.)]; assay type: functional

Genome polyprotein, sequence (P29990 2492-3391 limits assumed): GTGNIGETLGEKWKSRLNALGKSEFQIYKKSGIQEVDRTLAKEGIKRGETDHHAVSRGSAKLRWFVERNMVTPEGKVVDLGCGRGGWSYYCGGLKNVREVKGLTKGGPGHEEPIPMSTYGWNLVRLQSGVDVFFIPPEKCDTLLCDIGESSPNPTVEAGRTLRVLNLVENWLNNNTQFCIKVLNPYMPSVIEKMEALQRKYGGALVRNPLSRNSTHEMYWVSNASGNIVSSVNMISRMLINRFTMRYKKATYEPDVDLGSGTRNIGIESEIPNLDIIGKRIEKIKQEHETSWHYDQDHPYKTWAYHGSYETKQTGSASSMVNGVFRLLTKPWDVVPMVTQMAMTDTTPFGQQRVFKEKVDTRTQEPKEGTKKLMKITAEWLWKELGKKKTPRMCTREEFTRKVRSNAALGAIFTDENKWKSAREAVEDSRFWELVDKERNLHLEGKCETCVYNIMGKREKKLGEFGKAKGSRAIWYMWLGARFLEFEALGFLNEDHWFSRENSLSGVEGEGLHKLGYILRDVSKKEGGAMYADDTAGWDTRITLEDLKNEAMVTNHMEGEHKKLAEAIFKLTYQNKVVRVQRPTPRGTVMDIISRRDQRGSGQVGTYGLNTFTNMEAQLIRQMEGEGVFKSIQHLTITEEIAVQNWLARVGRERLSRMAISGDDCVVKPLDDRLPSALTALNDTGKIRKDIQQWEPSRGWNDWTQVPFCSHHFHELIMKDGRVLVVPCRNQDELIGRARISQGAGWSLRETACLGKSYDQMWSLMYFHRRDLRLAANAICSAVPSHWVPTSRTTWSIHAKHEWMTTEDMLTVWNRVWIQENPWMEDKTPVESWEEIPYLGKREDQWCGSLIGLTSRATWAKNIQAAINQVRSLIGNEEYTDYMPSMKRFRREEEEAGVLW

CSc1nnc(-c2ccccc2/N=C/c2c(C)nn(-c3ccc4ccccc4c3)c2O)c(O)n1
IC50 (Aminopeptidase N): 31.9 µM (active) | EC50 (H4): 46.3 µM (active) | CC50 (Vero): > 40 µM (active) | IC50 (Genome polyprotein): 37.5 µM (active) | EC50 [1]: 9.56 µM (active) | EC50 [2]: 8.3 µM (active) | IC50 [3]: 3.61 µM (active)

O=C(CCC1CCCN(Cc2ccc3c(c2)CCO3)C1)NCc1ccc(F)c(F)c1 (configuration not stated)
EC50 (cells): 11 nM (active) | EC50 [4]: < 100 nM (active) | EC50 [5]: > 60 µM (not active)

Cc1occc1C(=O)NC1CCCN(Cc2ccc(CC(C)C)cc2)C1 (configuration not stated)
EC50 (cells): 73 nM (active) | EC50 [4]: < 100 nM (active) | EC50 [5]: > 60 µM (not active)

COc1cc(/C=C2\C(=N)N3N=C(S(C)(=O)=O)SC3=NC2=O)ccc1OCCOc1ccccc1C
IC50 [6]: 3.51 µM (active) | CC50 [7]: 26.3 µM (active) | IC50 [3]: 28.5 µM (active)

Cc1cc2nc(SCCN3CCOCC3)[nH]c2cc1C
EC50 (H4): 0.22 µM (active) | EC50 [8]: 610 nM (active) | EC50 [9]: 338 nM (active) | EC50 [1]: < 0.1 µM (active) | EC50 [10]: 345 nM (active) | EC50 [2]: 1.88 µM (active)

CCn1c(C)cc(/C=C2/NC(=O)N(c3ccccc3)C2=O)c1C
EC50 (H4): > 120 µM (not active) | EC50 [8]: 505 nM (active) | EC50 [11]: > 195 µM (not active) | EC50 [9]: 236 nM (active) | EC50 [10]: 307 nM (active) | EC50 [2]: < 0.1 µM (active)

COc1cccc(C(=O)O/N=C(\N)c2ccc([N+](=O)[O-])cc2)c1
EC50 [12]: 3.57 µM (active)

COc1cccc(-c2nnc(NC(=O)Cc3cccs3)s2)c1
IC50 (Estrogen receptor): 19.1 µM (active)

C/C(=N/NC(=O)c1cccs1)c1c(C)[nH]n(-c2nc3ccccc3s2)c1=O
AC50 (INS1): 7.34 µM (active) | CC50 [13]: 25.8 µM (active) | EC50 [14]: 5.77 µM (active) | EC50 [15]: 10.9 µM (active) | EC50 (Streptococcus): 9.42 µM (active) | EC50 [16]: 11.2 µM (active)

OC1=C2C(=Nc3cc4c(cc3C2c2ccc(F)cc2)OCCO4)CO1 (configuration not stated)
IC50 [17]: 53.9 nM (active)
